Measurements taken from the Deep4Chem optical property database.
Where “and” joins values, the source holds several entries; their conditions need not be identical. Identical values can stand only once.

Test: solvent given as SMILES

SMILES: CCC1(CC)c2cc(-c3ccc4c(c3)C(CC)(CC)c3cc(C(C)(C)C)ccc3-4)ccc2-c2ccc(-c3ccc4c(c3)C(CC)(CC)c3cc(C(C)(C)C)ccc3-4)cc21
- emission maximum (in CO): 385.59 nm

SMILES: CCCC1=Cc2nc1ccc1[nH]c(cc1CCC)c1nc(c(NC(=O)CCCC(=O)O)cc3[nH]c2cc3CCC)C(CCC)=C1
- emission maximum (in ClCCl): 680 nm

SMILES: CCCCCCCCCCCCCCCCn1c(-c2cc(-c3nc4ccccc4n3CCCCCCCCCCCCCCCC)cc(-c3nc4ccccc4n3CCCCCCCCCCCCCCCC)c2)nc2ccccc21
- emission maximum (in C1CCOC1): 363 nm

SMILES: CN(C)c1ccc(-c2nc3nccnc3n2-c2ccccc2)cc1
- emission maximum (in CC#N): 477 nm

SMILES: C#CCOc1ccc(/C=C/C2=[N+]3C(=C(c4ccccc4)c4c(C)cc(C)n4[B-]3(F)F)C(C)=C2)cc1
- emission maximum (in CO): 574 nm

SMILES: c1ccc(C2(c3ccccc3)c3ccccc3N(c3ccc(-c4nc([C@]56CC7CC(C[C@@H](C7)C5)C6)nc([C@]56C[C@H]7C[C@@H](C[C@H](C7)C5)C6)n4)cc3)c3ccccc32)cc1
- emission maximum (in CC(C)(C)c1ccc(-n2c3ccc([Si](c4ccccc4)(c4ccccc4)c4ccccc4)cc3c3cc([Si](c4ccccc4)(c4ccccc4)c4ccccc4)ccc32)cc1): 445.29 nm
- emission maximum (in Cc1ccccc1): 451.05 nm

SMILES: COc1cc2c(cc1-c1ccc(C(F)(F)F)cc1)Cc1c3c(c4c(c1-2)-c1cc(OC)c(-c2ccc(C(F)(F)F)cc2)cc1C4)C(=O)N(CCC(C)C)C3=O
- emission maximum (in C1CCOC1): 458 nm

SMILES: CC[N+](CC)=c1ccc2cc3oc4cc(N)ccc4c3oc-2c1
- emission maximum (in CCO): 629 nm
- emission maximum (in ClCCl): 623 nm
- emission maximum (in O): 627 nm

SMILES: Oc1ccccc1-c1nc2c3cccnc3c3ncccc3c2n1-c1ccccc1
- emission maximum (in Cc1ccccc1): 379 nm

SMILES: CC(O)CC1=N/C(=C\c2cccc(N(C)C)c2)C(=O)N1C (stereo unspecified)
- emission maximum (in C1CCOC1): 585 nm
- emission maximum (in CC#N): 642 nm
- emission maximum (in CCCCCC): 506 nm

SMILES: CCOC(=O)COc1ccc(/C=C/C2=C3c4ccccc4C(c4[nH]c(C)cc4C)=[N+]3[B-](F)(F)n3c(C)cc(C)c32)cc1
- emission maximum (in C1CCOC1): 684 nm
- emission maximum (in CC#N): 681 nm
- emission maximum (in CCCCCC): 679 nm
- emission maximum (in CO): 680 nm
- emission maximum (in Cc1ccccc1): 690 nm
- emission maximum (in ClCCl): 687 nm

SMILES: CCN(C(C)=O)c1cc2c(cc1C)C(c1ccccc1C(=O)O)=C1CCCC(/C=C/C3=[N+](C)c4ccc5ccccc5c4C3(C)C)=C1O2
- emission maximum (in CCO): 715 nm

SMILES: CC1=CC(C)=[N+]2C1=Cc1c3ccccc3c(-c3[nH]c(C)cc3C)n1[B-]2(F)F
- emission maximum (in ClCCl): 631 nm

SMILES: Cc1ccc2c(c1)C1(c3ccccc3-c3ccccc31)c1cc(C)ccc1N2c1ccc2c(c1)Sc1ccccc1P2(=O)c1ccccc1 (stereo unspecified)
- emission maximum (in Cc1ccccc1): 454.61 nm

SMILES: C[C@]12SC(=O)C=C1c1nc(-c3ccccc3)[nH]c1C1=CC(=O)S[C@@]12C
- emission maximum (in CC#N): 513 nm

SMILES: COc1ccc(NC(=O)C(C(=O)Nc2ccc(OC)cc2)C(c2cc(F)ccc2O)c2c[nH]c3ccc(OC)cc23)cc1 (stereo unspecified)
- emission maximum (in CS(C)=O): 341 nm

SMILES: Cc1ccc([B-]2(c3ccc(C)cc3)n3nc(C(F)(F)F)cc3-c3c4ccccc4cc[n+]32)cc1
- emission maximum (in C1CCCCC1): 407 nm
- emission maximum (in Cc1ccccc1): 407 nm
- emission maximum (in ClCCl): 407 nm

SMILES: C/C(=C\c1ccc(C)cc1)c1nc2ccccc2o1
- emission maximum (in C1CCCCC1): 370 nm
- emission maximum (in CO): 380 nm

SMILES: COc1ccc2c(c1)CCc1c(-c3ccccc3)c3n(c1-2)[B-](F)(F)[N+]1=C2C(=C(c4ccccc4)C1=N3)CCc1ccccc12
- emission maximum (in ClC(Cl)Cl): 734 nm

SMILES: NS(=O)(=O)c1ccc(N2N=C(c3ccc(O)cc3)CC2c2ccc(Cl)cc2)cc1 (stereo unspecified)
- emission maximum (in C1CCOC1): 418 nm
- emission maximum (in C1COCCO1): 417 nm
- emission maximum (in CC#N): 417 nm
- emission maximum (in CC(C)O): 423 nm
- emission maximum (in CCO): 427 nm
- emission maximum (in CCOC(C)=O): 416 nm
- emission maximum (in CN(C)C=O): 422 nm
- emission maximum (in CO): 431 nm
- emission maximum (in CS(C)=O): 424 nm
- emission maximum (in O): 448 nm

SMILES: CCCc1ccc2c(c1)cc1n2B2c3c4c-1cccc4cc1cccc(c31)-c1cc3cc(CCC)ccc3n12
- emission maximum (in C1CCOC1): 565 nm

SMILES: O=c1oc2cc3c(cc2cc1/C=C/c1ccccc1)OCO3
- emission maximum (in CC#N): 469 nm

SMILES: COc1ccc(/C=C/c2ccccc2)cc1
- emission maximum (in C1CCCCC1): 364 nm
- emission maximum (in CC#N): 374 nm
- emission maximum (in CC(C)O): 365 nm
- emission maximum (in CCCCOCCCC): 367 nm
- emission maximum (in CCOC(C)=O): 366 nm
- emission maximum (in CCOCC): 366 nm

SMILES: CC(C)n1c2cc(O)c(F)cc2c(=O)c2cc(F)c(O)cc21
- emission maximum (in CCO): 438 nm

SMILES: O=S(=O)([O-])c1cc(S(=O)(=O)Cl)ccc1C1=c2cc3c4c(c2Oc2c1cc1c5c2CCCN5CCC1)CCC[N+]=4CCC3
- emission maximum (in O): 615 nm

SMILES: c1ccc(-c2nc(-c3ccc(-c4nc(-c5ccccc5)c(-c5ccccc5)[nH]4)s3)[nH]c2-c2ccccc2)cc1
- emission maximum (in C1CCOC1): 457 nm
- emission maximum (in CC#N): 458 nm
- emission maximum (in CC(=O)O): 503 nm and 502.99 nm
- emission maximum (in CC(C)=O): 460 nm and 458 nm
- emission maximum (in CCOC(C)=O): 457 nm
- emission maximum (in CCOCC): 454 nm and 454.01 nm
- emission maximum (in CO): 457 nm
- emission maximum (in ClC(Cl)Cl): 485 nm and 484.99 nm

SMILES: C1=CC2C=c3c(cc4cccc5cc6ccccc6c3c45)C3=c4ccccc4=CC(=C1)C32 (stereo unspecified)
- emission maximum (in ClCCl): 683 nm

SMILES: CCn1c2ccc(-c3ccc(-c4cccs4)s3)cc2c2cc(-c3ccc(-c4cccs4)s3)ccc21
- emission maximum (in ClCCl): 430 nm

SMILES: c1ccc(-c2nc(-c3ccccc3)c(-c3ccccc3)o2)cc1
- emission maximum (in Cc1ccccc1): 381 nm

SMILES: Cc1cccc2cc3c(=O)n(C)c(=O)n(C)c3nc12
- emission maximum (in CC#N): 417 nm
- emission maximum (in CC(C)O): 421 nm
- emission maximum (in CCO): 423 nm
- emission maximum (in CO): 425 nm
- emission maximum (in ClC(Cl)Cl): 417 nm
- emission maximum (in ClCCl): 417 nm

SMILES: CC(C)(C)c1ccc(N(c2ccc(C(C)(C)C)cc2)c2ccc(S(=O)(=O)c3ccc(N(c4ccc(C(C)(C)C)cc4)c4ccc(C(C)(C)C)cc4)cc3)cc2)cc1
- emission maximum (in Cc1ccccc1): 419 nm
- emission maximum (in O=P(c1ccccc1)(c1ccccc1)c1ccccc1Oc1ccccc1P(=O)(c1ccccc1)c1ccccc1): 430 nm

SMILES: CCCCCCCCOc1ccc(C2=C(c3ccc(OCCCCCCCC)cc3)C(C)(C)c3ccccc32)cc1
- emission maximum (in C1CCCCC1): 390 nm

SMILES: Cc1ccc(-c2ccc(/C=C/c3ccc([N+](=O)[O-])cc3)cn2)nc1
- emission maximum (in CC#N): 551 nm

SMILES: CN(C)c1ccc2cc3c(cc2c1)OCCN=C3
- emission maximum (in C1CCOC1): 425 nm
- emission maximum (in CC#N): 562 nm
- emission maximum (in CC(C)O): 447 nm
- emission maximum (in CCOC(C)=O): 426 nm
- emission maximum (in CN(C)C=O): 442 nm
- emission maximum (in CS(C)=O): 447 nm
- emission maximum (in Cc1ccccc1): 415 nm
- emission maximum (in ClCCl): 532 nm
- emission maximum (in O): 559 nm

SMILES: N#CC(C#N)=Cc1cn(-c2ccccc2)nc1-c1ccccc1
- emission maximum (in C1CCOC1): 427 nm
- emission maximum (in C1COCCO1): 426 nm
- emission maximum (in CCO): 426 nm
- emission maximum (in CCOC(C)=O): 427 nm
- emission maximum (in CN(C)C=O): 438 nm
- emission maximum (in CO): 426 nm
- emission maximum (in CS(C)=O): 443 nm
- emission maximum (in Cc1ccccc1): 430 nm
- emission maximum (in ClC(Cl)Cl): 432 nm
- emission maximum (in ClCCl): 430 nm

SMILES: CCCCOC(=O)c1cc(Cl)c2c3c(Cl)cc4c5c(cc(Cl)c(c6c(Oc7ccc(C(=O)OC)cc7)cc(C(=O)OCCCC)c1c26)c53)C(=O)N(c1c(C(C)C)cccc1C(C)C)C4=O
- emission maximum (in Cc1ccccc1): 560 nm

SMILES: CCCCCCCCCCOC(=O)c1ccc2c3ccc(C(=O)OCCCCCCCCCC)c4c(C(=O)OCCCCCCCCCC)cc5[nH]c6cc(C(=O)OCCCCCCCCCC)c1c2c6c5c43
- emission maximum (in C1CCOC1): 493 nm

SMILES: CCCCOc1c(-c2ccc(N(c3ccccc3)c3ccccc3)cc2)cc2cc(-c3ccc(N(c4ccccc4)c4ccccc4)cc3)c(OCCCC)c3c4c(OCCCC)c(-c5ccc(N(c6ccccc6)c6ccccc6)cc5)cc5cc(-c6ccc(N(c7ccccc7)c7ccccc7)cc6)c(OCCCC)c(c1c23)c54
- emission maximum (in ClCCl): 490 nm

SMILES: C[Si]1(C)C(c2ccccc2)=Cc2ccccc21
- emission maximum (in ClCCl): 390 nm

SMILES: COC(=O)CCC1=CC(C#Cc2cccs2)=[N+]2C1=Cc1c(CCC(=O)OC)cc(C#Cc3cccs3)n1[B-]2(F)F
- emission maximum (in ClCCl): 681 nm

SMILES: Nc1ccc(N2C(=O)c3ccc4c5ccc6c7c(ccc(c8ccc(c3c48)C2=O)c75)C(=O)N(c2ccc(O)cc2)C6=O)cc1
- emission maximum (in CN(C)C=O): 537 nm

SMILES: C(#Cc1ccncc1)C(C#Cc1ccncc1)=Cc1ccc(C=C(C#Cc2ccncc2)C#Cc2ccncc2)cc1
- emission maximum (in ClC(Cl)Cl): 472 nm

SMILES: c1ccc(-c2nc3c(ccc4[nH]ccc43)o2)cc1
- emission maximum (in C1CCCCC1): 372 nm
- emission maximum (in C1COCCO1): 409 nm
- emission maximum (in CC#N): 427 nm
- emission maximum (in CO): 437 nm
- emission maximum (in Cc1ccccc1): 390 nm
- emission maximum (in O): 459 nm

SMILES: NS(=O)(=O)c1ccc(N2N=C(c3ccc(O)cc3)CC2c2ccccc2)cc1 (stereo unspecified)
- emission maximum (in C1CCOC1): 418 nm
- emission maximum (in C1COCCO1): 417 nm
- emission maximum (in CC#N): 417 nm
- emission maximum (in CC(C)O): 423 nm
- emission maximum (in CCO): 428 nm
- emission maximum (in CCOC(C)=O): 416 nm
- emission maximum (in CN(C)C=O): 422 nm
- emission maximum (in CO): 432 nm
- emission maximum (in CS(C)=O): 424 nm
- emission maximum (in O): 448 nm

SMILES: CCN(CC)c1ccc(-c2ccc(-c3nc(C#N)c4ccccc4n3)s2)cc1
- emission maximum (in CC#N): 539 nm
- emission maximum (in Cc1ccccc1): 471 nm

SMILES: Cc1cc(-n2c3ccccc3c3cc(C#N)ccc32)ccc1-c1ccc(S(=O)(=O)c2ccccc2)cc1C
- emission maximum (in C1CCOC1): 369.19 nm
- emission maximum (in CC#N): 369.19 nm
- emission maximum (in Cc1ccccc1): 352 nm
- emission maximum (in ClCCl): 369.19 nm
